Measurements published in patent US8648208B2, “Activating agent for peroxisome proliferator activated receptor” (Nippon Chemiphar Co. Ltd., priority 2008, dated 2014).

How the values were obtained:
[1] = molecular target: T1, hPPARδ (LBD) (Homo sapiens, UniProt Q03181); experiment: PPAR activating effect, GAL4-hPPARδ LBD luciferase reporter transfection in CV-1 cells; type: cell-based; design: activation: dose or concentration left out as unconfirmed; conditions: CV-1, 40 h; read-out: PPAR activity δ (relative value to control compound)
T1 construct: A receptor expression plasmid (pSG5-GAL4-hPPARα or γ or δ (LBD)); GAL4 (fusion partner); expressed in transfected cells; host or cells: CV-1 cells (ATCC)
T1 sequence (Q03181 211-439 limits assumed): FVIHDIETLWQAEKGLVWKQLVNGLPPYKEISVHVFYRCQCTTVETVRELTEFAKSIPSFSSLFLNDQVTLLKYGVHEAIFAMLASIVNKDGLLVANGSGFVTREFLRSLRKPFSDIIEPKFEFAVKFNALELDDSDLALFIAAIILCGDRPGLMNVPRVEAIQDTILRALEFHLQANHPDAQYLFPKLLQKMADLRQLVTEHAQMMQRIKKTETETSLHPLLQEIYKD

[2] = molecular target: T2, hPPARγ (LBD) (Homo sapiens, UniProt P37231); experiment: PPAR activating effect, GAL4-hPPARγ LBD luciferase reporter transfection in CV-1 cells; type: cell-based; conditions: 100% = Rosiglitazone 10^-5 M
T2 construct: A receptor expression plasmid (pSG5-GAL4-hPPARα or γ or δ (LBD)); GAL4 (fusion partner); expressed in transfected cells; host or cells: CV-1 cells (ATCC)
T2 sequence (P37231 238-503 limits assumed): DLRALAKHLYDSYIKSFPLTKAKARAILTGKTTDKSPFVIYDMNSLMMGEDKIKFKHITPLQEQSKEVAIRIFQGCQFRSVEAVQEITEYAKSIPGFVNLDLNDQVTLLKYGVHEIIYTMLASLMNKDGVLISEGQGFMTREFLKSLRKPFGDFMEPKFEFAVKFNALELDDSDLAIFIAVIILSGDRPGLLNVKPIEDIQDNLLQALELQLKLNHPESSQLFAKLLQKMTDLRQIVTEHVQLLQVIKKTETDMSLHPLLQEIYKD

[3] = molecular target: T3, hPPARα (LBD) (Homo sapiens, UniProt Q07869); experiment: PPAR activating effect, GAL4-hPPARα LBD luciferase reporter transfection in CV-1 cells; type: cell-based; conditions: 100% = GW-590735 10^-6 M
T3 construct: A receptor expression plasmid (pSG5-GAL4-hPPARα or γ or δ (LBD)); GAL4 (fusion partner); expressed in transfected cells; host or cells: CV-1 cells (ATCC)
T3 sequence (Q07869 239-466 limits assumed): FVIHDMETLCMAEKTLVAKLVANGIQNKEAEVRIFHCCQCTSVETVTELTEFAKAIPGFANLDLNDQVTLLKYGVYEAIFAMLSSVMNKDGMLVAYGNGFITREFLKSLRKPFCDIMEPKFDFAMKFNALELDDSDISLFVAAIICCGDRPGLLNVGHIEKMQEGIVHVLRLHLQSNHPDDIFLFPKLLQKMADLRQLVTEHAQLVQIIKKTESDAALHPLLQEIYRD

[4] = Table 26, test compound 10^-7 M
[5] = Table 24, CV-1 cells, approx. 40 h

| SMILES | melting point [°C] | activation at 0.1 µM [1] [%] | PPAR activity γ (relative value to control compound) [2, 4] | PPAR activity α (relative value to control compound) [3, 4] | activation at 0.1 µM ([2]; CV-1, 40 h, Table 26, test compound 10^-7 M, read-out: PPAR activity γ (relative value to control compound)) [%] | activation at 0.1 µM ([3]; CV-1, 40 h, Table 26, test compound 10^-7 M, read-out: PPAR activity α (relative value to control compound)) [%] | activation [1] [%] | PPAR activity γ (relative value to control compound) [2, 5] [%] | PPAR activity α (relative value to control compound) [3, 5] |
| --- | --- | --- | --- | --- | --- | --- | --- | --- | --- |
| CC(C)c1c(CCc2noc3cc(N(C)CC(=O)O)ccc23)sc2cc(C(F)(F)F)ccc12 [Example 28, N-[3-[2-[3-Isopropyl-6-(trifluoromethyl)benzothiophen-2-yl]ethyl]benzisoxazol-6-yl]-N-methylglycine] | 153 to 156 | 81.3 | Inactive | Inactive | – | – | – | – | – |
| CCCc1c(CCc2noc3cc(N(C)CC(=O)O)c(C)cc23)sc2cc(C(F)(F)F)ccc12 [Example 24, N-[5-Methyl-3-[2-[3-propyl-6-(trifluoromethyl)benzothiophen-2-yl]ethyl]benzisoxazol-6-yl]-N-methylglycine] | 147 to 149 | 77.2 | – | – | 5.8 | 16.4 | – | – | – |
| CCCc1c(CCc2noc3cc(OCC(=O)O)c(C)cc23)sc2cc(C(F)(F)F)ccc12 [Example 25, [5-Methyl-3-[2-[3-propyl-6-(trifluoromethyl)benzothiophen-2-yl]ethyl]benzisoxazol-6-yloxy]acetic acid] | – | 87.4 | Inactive | Inactive | – | – | – | – | – |
| CCCCc1c(CCC(=O)c2ccc(CCC(=O)O)c(C)c2)sc2cc(C(F)(F)F)ccc12 [Example 10, 3-[2-Methyl-4-[3-[3-butyl-6-(trifluoromethyl)benzothiophen-2-yl]propionyl]phenyl]propionic acid] | – | – | – | – | – | – | 66.1 | 2.2 | Inactive |
